As a reminder, the IC50 is the concentration at which inhibition is half-maximal. The inhibition is the share of the control response that was lost under treatment.

Where only a bound is given, the exact number is not on record here.

What all share (type): biochemical
One assay concerns the target T1, human PLK4 (Homo sapiens, UniProt O00444).
T1 construct: amino terminal GST fusion of residues 1-391 of human PLK4; made in house; host or cells: E. coli
T1 sequence (O00444 1-391): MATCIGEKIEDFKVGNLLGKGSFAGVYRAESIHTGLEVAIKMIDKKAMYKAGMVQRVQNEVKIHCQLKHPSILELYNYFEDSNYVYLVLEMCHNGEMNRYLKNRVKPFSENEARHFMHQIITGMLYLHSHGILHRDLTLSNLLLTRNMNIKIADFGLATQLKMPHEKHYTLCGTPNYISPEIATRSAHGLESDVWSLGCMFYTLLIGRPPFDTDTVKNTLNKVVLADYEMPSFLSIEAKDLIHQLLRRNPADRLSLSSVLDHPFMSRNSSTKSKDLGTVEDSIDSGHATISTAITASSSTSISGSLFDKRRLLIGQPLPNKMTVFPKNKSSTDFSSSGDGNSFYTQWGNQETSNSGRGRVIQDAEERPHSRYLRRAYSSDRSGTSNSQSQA
Kind of assay: PLK4 Inhibition Assay (indirect ELISA). To be noted: 15 μM ATP, 4 nM GST-PLK4; read-out: PLK4 IC50 Ranges. The protocol:
The protein was purified from clarified cell extracts after induction at 15° C. overnight using glutathione sepharose, gel permeation chromatography, and ion exchange (Resource Q). The resulting protein was dephosphorylated with lambda phosphatase (NEB cat #P0753), and resolved from the phosphatase using gluthione sepharose. The dephosphorylated GST-PLK4 was stored in aliquots at −80° C. until use. PLK4 activity was measured using an indirect ELISA detection system. […] Compounds were pre-incubated in the presence of enzyme for 15 minutes prior to addition of ATP and the activity remaining quantified using the above described activity assay. […] The IC50 value was determined using a non-linear 4 point logistic curve fit (XLfit4, IDBS) with the formula; (A+(B/(1+((x/C)^D)))), where A=background value, B=range, C=inflection point, D=curve fit parameter.
In general terms: ELISA stands for enzyme-linked immunosorbent assay.

A further assay deals with T2, Aurora A (Homo sapiens, UniProt O14965).
T2 construct: purchased Invitrogen PV3612
T2 sequence (O14965 1-403): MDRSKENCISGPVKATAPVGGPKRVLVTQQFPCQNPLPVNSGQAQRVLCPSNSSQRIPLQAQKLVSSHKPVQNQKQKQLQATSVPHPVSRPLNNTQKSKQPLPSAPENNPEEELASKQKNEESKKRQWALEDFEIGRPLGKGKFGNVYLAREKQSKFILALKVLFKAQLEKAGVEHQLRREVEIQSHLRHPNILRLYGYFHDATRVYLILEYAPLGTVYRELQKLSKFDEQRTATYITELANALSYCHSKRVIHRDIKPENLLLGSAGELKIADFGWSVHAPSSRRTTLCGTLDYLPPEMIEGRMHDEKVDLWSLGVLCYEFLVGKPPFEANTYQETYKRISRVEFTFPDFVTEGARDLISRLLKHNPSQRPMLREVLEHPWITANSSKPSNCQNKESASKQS
Kind of assay: Aurora A Inhibition Assay (Z-Lyte). To be noted: for IC50: 20 μM ATP, 12 nM Aurora A, read-out: Aurora A IC50 Ranges; for inhibition at 1 µM: 1 μM compound, read-out: Aurora A relative inhibition percentage at a dose of 1 μM; for inhibition at 10 µM: 10 μM compound, read-out: Aurora A relative inhibition percentage at a dose of 10 μM. The protocol: Aurora A inhibition was determined using the Z-Lyte assay kit from Invitrogen. The assay was performed using the recommended manufacturer's instructions with 20 μM ATP and 12 nM Aurora A (Invitrogen cat #PV3612). The % inhibition values were determined according to the manufacturer's directions and IC50 values were obtained using a non-linear 4 point logistic curve fit (XLfit4, IDBS)

In the next assay the target is T3, Aurora B (Homo sapiens, UniProt Q96GD4).
T3 construct: purchased Invitrogen PV3970
Kind of assay: Aurora B Inhibition Assay (Z-Lyte). The settings on record: 128 μM ATP, 28 nM Aurora B; read-out: Aurora B IC50 Ranges. The protocol:
Aurora B inhibition was determined using the Z-Lyte assay kit from Invitrogen. The assay was performed using the recommended manufacturer's instructions with 128 μM ATP and 28 nM Aurora B (Invitrogen cat #PV3970). The % inhibition values were determined according to the manufacturer's directions and IC50 values were obtained using a non-linear 4 point logistic curve fit (XLfit4, IDBS)

The target in the next assay is T4, PLK1 (Homo sapiens, UniProt P53350).
T4 construct: purchased Invitrogen PV3501
In words: PLK1 Inhibition Assay (Z-Lyte). To be noted: 10 μM compound; read-out: PLK1 relative inhibition percentage at a dose of 10 μM. On the procedure:
PLK1 inhibition was determined using the Z-Lyte assay kit from Invitrogen (cat #PV3802). […] The % inhibition values were determined according to the manufacturer's directions and IC50 values were obtained using a non-linear 4 point logistic curve fit (XLfit4, IDBS)

The next assay addresses T5, PLK2 (Homo sapiens, UniProt Q9NYY3).
T5 construct: purchased Invitrogen PV4204
In words: PLK2 Inhibition Assay (Z-Lyte). The settings on record: 10 μM compound; read-out: PLK2 relative inhibition percentage at a dose of 10 μM. The protocol:
PLK2 inhibition was determined using the Z-Lyte assay kit from Invitrogen (cat #PV3802). The assay was performed using the recommended manufacturer's instructions with 60 μM ATP and 133 nM PLK2 (Invitrogen cat #PV4204). The % inhibition values were determined according to the manufacturer's directions and IC50 values were obtained using a non-linear 4 point logistic curve fit (XLfit4, IDBS)

T3 sequence (Q96GD4 whole entry): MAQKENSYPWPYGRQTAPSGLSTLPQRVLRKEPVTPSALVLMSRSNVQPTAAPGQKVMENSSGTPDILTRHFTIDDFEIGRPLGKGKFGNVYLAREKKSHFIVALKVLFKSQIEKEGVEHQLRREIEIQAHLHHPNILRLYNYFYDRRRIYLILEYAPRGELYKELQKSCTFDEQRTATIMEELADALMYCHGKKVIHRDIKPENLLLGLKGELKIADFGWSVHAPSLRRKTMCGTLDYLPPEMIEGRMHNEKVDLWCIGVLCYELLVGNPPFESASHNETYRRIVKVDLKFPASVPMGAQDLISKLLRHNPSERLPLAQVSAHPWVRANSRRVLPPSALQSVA
T4 sequence (P53350 whole entry): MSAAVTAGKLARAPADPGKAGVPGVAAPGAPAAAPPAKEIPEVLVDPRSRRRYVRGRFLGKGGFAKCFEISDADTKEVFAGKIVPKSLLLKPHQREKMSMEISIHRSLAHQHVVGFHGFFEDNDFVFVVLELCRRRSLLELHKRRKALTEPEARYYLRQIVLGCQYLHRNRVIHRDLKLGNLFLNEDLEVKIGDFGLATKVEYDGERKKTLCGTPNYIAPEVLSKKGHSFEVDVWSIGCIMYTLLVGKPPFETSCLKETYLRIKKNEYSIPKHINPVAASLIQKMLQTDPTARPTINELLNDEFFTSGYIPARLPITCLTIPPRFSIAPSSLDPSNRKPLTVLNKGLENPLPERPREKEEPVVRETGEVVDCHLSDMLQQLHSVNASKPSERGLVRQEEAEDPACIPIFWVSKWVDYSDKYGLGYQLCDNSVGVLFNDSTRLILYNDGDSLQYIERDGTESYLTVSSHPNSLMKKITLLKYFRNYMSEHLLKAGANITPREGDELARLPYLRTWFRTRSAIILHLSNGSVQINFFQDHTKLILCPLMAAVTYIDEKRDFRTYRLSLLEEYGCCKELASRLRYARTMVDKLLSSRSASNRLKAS
T5 sequence (Q9NYY3 whole entry): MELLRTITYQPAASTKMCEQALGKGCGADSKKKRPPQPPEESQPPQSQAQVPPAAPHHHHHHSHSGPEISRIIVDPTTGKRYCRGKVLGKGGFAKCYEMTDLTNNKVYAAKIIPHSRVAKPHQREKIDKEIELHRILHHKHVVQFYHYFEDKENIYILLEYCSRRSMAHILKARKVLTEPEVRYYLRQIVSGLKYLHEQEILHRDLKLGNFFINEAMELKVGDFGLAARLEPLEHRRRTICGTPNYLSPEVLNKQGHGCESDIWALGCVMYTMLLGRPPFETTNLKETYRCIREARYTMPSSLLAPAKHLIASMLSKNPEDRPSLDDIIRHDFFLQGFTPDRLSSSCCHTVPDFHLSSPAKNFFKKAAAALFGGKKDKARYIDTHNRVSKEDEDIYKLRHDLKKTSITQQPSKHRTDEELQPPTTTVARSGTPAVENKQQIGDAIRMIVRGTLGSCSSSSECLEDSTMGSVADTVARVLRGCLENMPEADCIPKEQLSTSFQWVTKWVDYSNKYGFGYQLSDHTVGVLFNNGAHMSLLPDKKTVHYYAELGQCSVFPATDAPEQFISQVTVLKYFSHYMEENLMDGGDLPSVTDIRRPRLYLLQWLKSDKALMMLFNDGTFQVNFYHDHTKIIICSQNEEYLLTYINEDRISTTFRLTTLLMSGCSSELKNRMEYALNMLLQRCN

For the compound `O=C1Nc2ncc(Br)cc2C1=Cc1ccc2c(/C=C/c3cccnc3)n[nH]c2c1` (mixture of isomers) [Example A140, (E and Z)-5-bromo-3-((3-((E)-2-(pyridin-3-yl)vinyl)-1H-indazol-6-yl)methylene)-1H-pyrrolo[2,3-b]pyridin-2(3H)-one], the IC50 on human PLK4, at Aurora A and on Aurora B was less than 5 µM throughout.
Regarding `O=C1Nc2ccc(O)cc2/C1=C\c1ccc2cn[nH]c2c1` [Example A123, (E)-3-((1H-indazol-6-yl)methylene)-5-hydroxyindolin-2-one], the IC50 on human PLK4, on Aurora A and on Aurora B was less than 5 µM throughout.
Consider `N#Cc1ccc2c(c1)C(=Cc1ccc3c(/C=C/c4ccncc4)n[nH]c3c1)C(=O)N2` (mixture of isomers) [Example A128, (E and Z)-2-oxo-3-((3-((E)-2-(pyridin-4-yl)vinyl)-1H-indazol-6-yl)methylene)indoline-5-carbonitrile], for which the half-inhibitory concentration (IC50) on human PLK4, on Aurora A and at Aurora B was less than 5 µM each time.
Turning to `COc1cc2c(cc1OC)/C(=C\c1ccc3c(/C=C/c4ccncc4)n[nH]c3c1)C(=O)N2` [Example A138, (E)-5,6-dimethoxy-3-((3-((E)-2-(pyridin-4-yl)vinyl)-1H-indazol-6-yl)methylene)indolin-2-one], the IC50 at human PLK4, at Aurora A and on Aurora B was less than 5 µM in each case.
On to `O=C1Nc2ccc(O)cc2/C1=C\c1ccc2c(/C=C/c3ccncc3)n[nH]c2c1` [Example A124, (E)-5-hydroxy-3-((3-((E)-2-(pyridin-4-yl)vinyl)-1H-indazol-6-yl)methylene)indolin-2-one 2,2,2-trifluoroacetate], for which the IC50 at human PLK4, at Aurora A and at Aurora B was less than 5 µM throughout.
With `COc1ccc2c(c1)/C(=C\c1ccc3c(-c4cnc(N5CCN(C)CC5)nc4)n[nH]c3c1)C(=O)N2` [Example A151, (E)-5-methoxy-3-((3-(2-(4-methylpiperazin-1-yl)pyrimidin-5-yl)-1H-indazol-6-yl)methylene)indolin-2-one], the IC50 is less than 5 µM at human PLK4, 5 to 50 µM on Aurora A and less than 5 µM on Aurora B.
As to `O=C1Nc2ccccc2/C1=C\c1ccc2c(/C=C/c3ccc(C(=O)O)cc3)n[nH]c2c1` [Example A144, 4-((E)-2-(6-((E)-(2-oxoindolin-3-ylidene)methyl)-1H-indazol-3-yl)vinyl)benzoic acid], the IC50 at human PLK4, on Aurora A and at Aurora B was less than 5 µM each time.
For `COC(=O)c1ccc(/C=C/c2n[nH]c3cc(/C=C4\C(=O)Nc5ccccc54)ccc23)cc1` [Example A141, methyl 4-((E)-2-(6-((Z)-(2-oxoindolin-3-ylidene)methyl)-1H-indazol-3-yl)vinyl)benzoate], the IC50 on human PLK4 and on Aurora B was less than 5 µM in each case. Moreover, at Aurora A, the inhibition at 1 µM was more than 50%.
Regarding `COC(=O)c1ccc(/C=C/c2n[nH]c3cc(C=C4C(=O)Nc5ncccc54)ccc23)cc1` (mixture of isomers) [Example A143, methyl 4-((E)-2-(6-((E and Z)-(2-oxo-1H-pyrrolo[2,3-b]pyridin-3(2H)-ylidene)methyl)-1H-indazol-3-yl)vinyl)benzoate], the IC50 on human PLK4 and on Aurora B was less than 5 µM throughout. Besides, the inhibition at 1 µM on Aurora A is more than 50%.
Take `COc1ccc2c(c1)/C(=C\c1ccc3c(/C=C/C(=O)N(C)CCN(C)C)n[nH]c3c1)C(=O)N2` [Example A126, (E)-N-(2-(dimethylamino)ethyl)-3-(6-((E)-(5-methoxy-2-oxoindolin-3-ylidene)methyl)-1H-indazol-3-yl)-N-methylacrylamide 2,2,2-trifluoroacetate]: the IC50 at human PLK4 and on Aurora B was less than 5 µM throughout. For the same compound, the inhibition at 10 µM on Aurora A is more than 50%.
Take `O=C(O)/C=C/c1n[nH]c2cc(C=C3C(=O)Nc4ncccc43)ccc12` (mixture of isomers) [Example A71, (E)-3-(6-((E & Z)-(2-oxo-1H-pyrrolo[2,3-b]pyridin-3(2H)-ylidene)-methyl)-1H-indazol-3-yl)acrylic acid]: the IC50 at human PLK4 and on Aurora B was less than 5 µM in each case. The inhibition at 10 µM at Aurora A is more than 50%.
In the case of `O=C1Nc2ccc(Cl)nc2C1=Cc1ccc2c(/C=C/c3ccncc3)n[nH]c2c1` (mixture of isomers) [Example A137, (E and Z)-5-chloro-3-((3-((E)-2-(pyridin-4-yl)vinyl)-1H-indazol-6-yl)methylene)-1H-pyrrolo[3,2-b]pyridin-2(3H)-one], the IC50 on human PLK4, on Aurora A and on Aurora B was less than 5 µM throughout.
Regarding `O=C1Nc2ncccc2C1=Cc1ccc2c(/C=C/c3ccc(C(=O)O)cc3)n[nH]c2c1` (mixture of isomers) [Example A146, 4-((E)-2-(6-((E/Z)-(2-oxo-1H-pyrrolo[2,3-b]pyridin-3(2H)-ylidene)methyl)-1H-indazol-3-yl)vinyl)benzoic acid], the IC50 on human PLK4, on Aurora A and on Aurora B was less than 5 µM each time.
In the case of `O=C1Nc2ccc(Br)cc2C1=Cc1ccc2c(/C=C/c3cccnc3)n[nH]c2c1` (mixture of isomers) [Example A139, (E and Z)-5-bromo-3-((3-((E)-2-(pyridin-3-yl)vinyl)-1H-indazol-6-yl)methylene)indolin-2-one], the IC50 at human PLK4, on Aurora A and at Aurora B was less than 5 µM each time.
`COc1ccc2c(c1)/C(=C\c1ccc3c(/C=C/c4ccc(C(=O)O)cc4)n[nH]c3c1)C(=O)N2` [Example A145, 4-((E)-2-(6-((E)-(5-methoxy-2-oxoindolin-3-ylidene)methyl)-1H-indazol-3-yl)vinyl)benzoic acid]: the IC50 at human PLK4, at Aurora A and on Aurora B was less than 5 µM throughout.
For `COC(=O)c1ccc(/C=C/c2n[nH]c3cc(C=C4C(=O)Nc5ccc(OC)cc54)ccc23)cc1` (mixture of isomers) [Example A142, methyl 4-((E)-2-(6-((E and Z)-(5-methoxy-2-oxoindolin-3-ylidene)methyl)-1H-indazol-3-yl)vinyl)benzoate], the IC50 on human PLK4 and on Aurora B was less than 5 µM throughout. For the same compound, the inhibition at 1 µM at Aurora A is more than 50%.
With `COc1ccc2c(c1)/C(=C\c1ccc3c(-c4ccc(N(C)C)nc4)n[nH]c3c1)C(=O)N2` [Example A116, (E)-3-((3-(6-(dimethylamino)pyridin-3-yl)-1H-indazol-6-yl)methyl-ene)-5-methoxyindolin-2-one], the inhibition at 10 µM at PLK1 and on PLK2 was less than 50% in each case.

(Values after patent US8765748B2, “Indazolyl, benzimidazolyl, benzotriazolyl substituted indolinone derivatives as kinase inhibitors useful in the treatment of cancer” (University Health Network, priority 2007, dated 2014).)
